From patent US5438052A, “Cephalosporin derivatives” (Hoffmann-La Roche Inc., priority 1991, dated 1995)
Converted amounts (≈) assume the structure as drawn. Like-named read-outs stand apart in the source and are kept apart here.

How the values were obtained:
[1] = tested on: C. freundii 902; assay: Minimum inhibitory concentration in vitro, agar dilution method; type: cell-based; conditions: Citrobacter freundii
Text: (§1) 1. Minimum Inhibitory Concentration in vitro
(§2) The activities ascertained, minimum inhibitory concentration (MIC) in μg/ml, are compiled in Table 1 hereinafter: […]

[2] = tested on: E. cloacae 908R; assay: as above; type: cell-based; conditions: Enterobacter cloacae
Text: as §1, §2

[3] = tested on: E. cloacae 908SSi; assay: as above; type: cell-based; conditions: Enterobacter cloacae
Text: as §1, §2

[4] = tested on: E. cloacae P99; assay: as above; type: cell-based; conditions: Enterobacter cloacae
Text: as §1, §2

[5] = tested on: E. coli 25922; assay: as above; type: cell-based; conditions: Escherichia coli
Text: as §1, §2

[6] = tested on: K. oxytoca 1082; assay: as above; type: cell-based; conditions: Klebsiella oxytoca
Text: as §1, §2

[7] = tested on: K. pneumoniae 418; assay: as above; type: cell-based; conditions: Klebsiella pneumoniae
Text: as §1, §2

[8] = tested on: P. aeruginosa 27853; assay: as above; type: cell-based; conditions: Pseudomonas aeruginosa
Text: as §1, §2

[9] = tested on: P. aeruginosa 799/61; assay: as above; type: cell-based; conditions: Pseudomonas aeruginosa
Text: as §1, §2

[10] = tested on: P. aeruginosa 799/WT; assay: as above; type: cell-based; conditions: Pseudomonas aeruginosa
Text: as §1, §2

[11] = tested on: P. aeruginosa BA; assay: as above; type: cell-based; conditions: Pseudomonas aeruginosa
Text: as §1, §2

[12] = tested on: P. aeruginosa MK1184; assay: as above; type: cell-based; conditions: Pseudomonas aeruginosa
Text: as §1, §2

[13] = tested on: P. mirabilis 2117; assay: as above; type: cell-based; conditions: Proteus mirabilis
Text: as §1, §2

[14] = tested on: P. vulgaris 1028; assay: as above; type: cell-based; conditions: Proteus vulgaris
Text: as §1, §2

[15] = tested on: S. aureus 6538; assay: as above; type: cell-based; conditions: Staphylococcus aureus
Text: as §1, §2

[16] = tested on: S. marcescens 69438; assay: as above; type: cell-based; conditions: Serratia marcescens
Text: as §1, §2

[17] = tested on: S. pyogenes 15; assay: as above; type: cell-based; conditions: Streptococcus pyogenes
Text: as §1, §2

[18] = tested on: E. coli 25922; assay: Experimental systemic septicaemia in the mouse; type: in vivo; conditions: 96 h
Protocol: (§3) 2. Experimental systemic septicaemia in the mouse
(§4) An experimental systemic septicaemia was produced in albino mice weighing 16-20 g by intraperitoneally injecting into the experimental animals a sample of a dilute culture of the test organism which had been grown overnight. The sample administered is calculated such that the dosage administered is about 5-100 times greater than the dosage which is required to kill 50% of untreated experimental animals within 48 hours. The bacteria were injected as a suspension in the culture broth. Groups of 5 experimental animals each were used not only for the control, but also for the treatment for each dosage tested. The products in accordance with the invention were administered subcutaneously as a suspension in Tween 80 (2%), whereby the concentrations were chosen such that each experimental animal received 500 μl per administration. The respective concentrations were administered twice, namely 1 and 3 hours after the infection (in the case of P. aeruginosa three times, namely 1, 3 and 5 hours after the infection). The ED50 is that dosage which protects 50% of the experimental animals and was calculated by means of the Probit method on the basis of the survial rate after 4 days following the infection. The ED50 values in mg/kg s.c. (subcutaneous) for representatives of the class of substance in accordance with the invention are given in Table 2 hereinafter.

[19] = tested on: Pseudomonas aeruginosa BA; assay: Experimental systemic septicaemia in the mouse; type: in vivo; conditions: sc, 96 h
Protocol: as §3, §4

[20] = tested on: S. pneumoniae BA; assay: Minimum inhibitory concentration in vitro, agar dilution method; type: cell-based; conditions: Streptococcus pneumoniae; S. pneumoniae BA, agar dilution; read-out: MIC
Text: as §1, §2

[21] = C. freundii 902, agar dilution, read-out: MIC
[22] = E. cloacae 908R, agar dilution, read-out: MIC
[23] = E. cloacae 908SSi, agar dilution, read-out: MIC
[24] = E. coli 25922, agar dilution, read-out: MIC
[25] = K. oxytoca 1082, agar dilution, read-out: MIC
[26] = K. pneumoniae 418, agar dilution, read-out: MIC
[27] = P. aeruginosa 27853, agar dilution, read-out: MIC
[28] = P. aeruginosa 799/61, agar dilution, read-out: MIC
[29] = P. aeruginosa 799/WT, agar dilution, read-out: MIC
[30] = P. aeruginosa BA, agar dilution, read-out: MIC
[31] = P. aeruginosa MK1184, agar dilution, read-out: MIC
[32] = P. mirabilis 2117, agar dilution, read-out: MIC
[33] = P. vulgaris 1028, agar dilution, read-out: MIC
[34] = S. aureus 6538, agar dilution, read-out: MIC
[35] = S. marcescens 69438, agar dilution, read-out: MIC
[36] = S. pyogenes 15, agar dilution, read-out: MIC
[37] = P. aeruginosa BA, albino mice, s.c. 1, 3 and 5 hours after infection, survival after 4 days, read-out: ED50

Structure (SMILES) | MIC [1, 21] [µg/mL] | MIC [2, 22] [µg/mL] | MIC [3, 23] [µg/mL] | MIC [4] [µg/mL] | MIC [5, 24] [µg/mL] | MIC [6, 25] [µg/mL] | MIC [7, 26] [µg/mL] | MIC [8, 27] [µg/mL] | MIC [9, 28] [µg/mL] | MIC [10, 29] [µg/mL] | MIC [11, 30] [µg/mL] | MIC [12, 31] [µg/mL] | MIC [13, 32] [µg/mL] | MIC [14, 33] [µg/mL] | MIC [15, 34] [µg/mL] | MIC [16, 35] [µg/mL] | MIC [17, 36] [µg/mL] | ED50 [19, 37] [mg/kg] | MIC [20] [µg/mL] | also measured
Cc1cc(SCC2=C(C(=O)O)N3C(=O)[C@@H](NC(=O)/C(=N\OC(C)(C)C(=O)NO)c4csc(N)n4)[C@H]3SC2)n2nc(CNS(=O)(=O)c3ccc(O)c(O)c3)nc2n1 [Example 1, (6R,7R)-7-[(Z)-2-(2-amino-4-thiazolyl)-2-[[(1-hydroxycarbamoyl)-1-methylethoxy]imino]acetamido]-3-[[[2-[(3,4-dihydroxybenzenesulphonamido)methyl]-5-methyl-s-triazolo[1.5-a]pyrimidin-7-yl]thio]methyl]-8-oxo-5-thia-1-azabicyclo[4.2.0]oct-2-ene-2-carboxylic acid] | 1 (≈ 1.18 µM) | 16 (≈ 18.8 µM) | 4 (≈ 4.71 µM) | 32 (≈ 37.7 µM) | 0.25 (≈ 0.294 µM) | 0.5 (≈ 0.588 µM) | 0.12 (≈ 0.141 µM) | 4 (≈ 4.71 µM) | 0.25 (≈ 0.294 µM) | 0.5 (≈ 0.588 µM) | 0.5 (≈ 0.588 µM) | 4 (≈ 4.71 µM) | 0.12 (≈ 0.141 µM) | 0.5 (≈ 0.588 µM) | 16 (≈ 18.8 µM) | 0.25 (≈ 0.294 µM) | 4 (≈ 4.71 µM) | – | – | –
Cc1cc(SCC2=C(C(=O)[O-])N3C(=O)[C@@H](NC(=O)/C(=N\OCS(=O)(=O)c4ccc(O)c(O)c4)c4csc(N)n4)[C@H]3SC2)n2nc(CS(=O)(=O)c3ccc(O)c(O)c3)nc2n1.[Na+] [Example 10, (6R,7R)-7-[(Z)-2-(2-amino-4-thiazolyl)-2-[[[(3,4-dihydroxyphenyl)sulphonyl]methoxy]imino]acetamido]-3-[[[2-[[(3,4-dihydroxyphenyl)sulphonyl]methyl]-5-methyl-s-triazolo[1,5-a]pyrimidin-7-yl]thio]methyl]-8-oxo-5-thia-1-azabicyclo[4.2.0]oct-2-ene-2-carboxylic acid sodium salt (1:1)] | – | – | – | 16 | – | – | – | – | – | – | – | – | – | – | – | – | – | – | – | MIC [1]; 902: 0.12 µg/mL; MIC ([2]; 908R): 2 µg/mL; MIC ([3]; 908SSI): 8 µg/mL; MIC [5]; 25922: < 0.1 µg/mL; MIC [6]; 1082: 4 µg/mL; MIC [7]; 418: < 0.1 µg/mL; MIC [8]; 27853: < 0.1 µg/mL; MIC ([9]; 799/61): < 0.1 µg/mL; MIC ([10]; 799/WT): < 0.1 µg/mL; MIC [11]: < 0.1 µg/mL; MIC ([12]; MK1184): < 0.1 µg/mL; MIC [13]; 2117: < 0.1 µg/mL; MIC [14]; 1028: < 0.1 µg/mL; MIC [15]; 6538: 32 µg/mL; MIC [16]; 69438: 0.12 µg/mL; MIC [17]; 15: 4 µg/mL; ED50 ([18]; Escherichia coli, 25922, sc): < 0.1 mg/kg; ED50 [19]: 0.15 mg/kg
Nc1nc(/C(=N/OCc2nc(=O)c(O)c[nH]2)C(=O)N[C@@H]2C(=O)N3C(C(=O)O)=C(CSc4cc(-c5ccc(O)c(O)c5)nc5ccnn45)CS[C@H]23)cs1 [Example 13, (6R,7R)-7-[(Z)-2-(2-amino-4-thiazolyl)-2-[[(1,4-dihydro-5-hydroxy-4-oxo-2-pyrimidinyl)methoxy]imino]acetamido]-3-[[[5-(3,4-dihydroxyphenyl)pyrazolo[1,5-a]pyrimidin-7-yl]thio]methyl]-8-oxo-5-thia-1-azabicyclo[4.2.0]oct-2-ene-2-carboxylic acid] | 0.25 (≈ 0.327 µM) | 1 (≈ 1.31 µM) | 4 (≈ 5.23 µM) | 8 (≈ 10.5 µM) | 0.06 (≈ 0.0785 µM) | 0.06 (≈ 0.0785 µM) | 0.06 (≈ 0.0785 µM) | 4 (≈ 5.23 µM) | 0.06 (≈ 0.0785 µM) | 1 (≈ 1.31 µM) | 2 (≈ 2.62 µM) | 8 (≈ 10.5 µM) | 0.06 (≈ 0.0785 µM) | 0.06 (≈ 0.0785 µM) | 16 (≈ 20.9 µM) | 0.12 (≈ 0.157 µM) | 1 (≈ 1.31 µM) | 4 | – | –
Nc1nc(/C(=N/OCc2ccc(O)c(O)c2)C(=O)N[C@@H]2C(=O)N3C(C(=O)O)=C(CS(=O)(=O)c4ccc(O)c(O)c4)CS[C@H]23)cs1 [Example 23, (6R,7R)-7-[(Z)-2-(2-amino-4-thiazolyl)-2-[[(3,4-dihydroxybenzyl)oxy]imino]acetamido]-3-[[(3,4-dihydroxyphenyl)sulphonyl]methyl]-8-oxo-5-thia-1-azabicyclo[4.2.0]oct-2-ene-2-carboxylic acid] | 4 (≈ 5.9 µM) | > 32 | 16 (≈ 23.6 µM) | > 32 | 0.25 (≈ 0.369 µM) | 16 (≈ 23.6 µM) | 0.12 (≈ 0.177 µM) | 32 (≈ 47.2 µM) | 0.12 (≈ 0.177 µM) | 1 (≈ 1.48 µM) | 32 (≈ 47.2 µM) | > 32 | 1 (≈ 1.48 µM) | 2 (≈ 2.95 µM) | 16 (≈ 23.6 µM) | 2 (≈ 2.95 µM) | 4 (≈ 5.9 µM) | – | 4 (≈ 5.9 µM) | –
CC(C)(O/N=C(\C(=O)N[C@@H]1C(=O)N2C(C(=O)O)=C(CSc3nnc(-c4ccc(O)c(O)c4)o3)CS[C@H]12)c1csc(N)n1)C(=O)NNC(=O)c1ccc(O)c(O)c1 [Example 45, (6R,7R)-7-[(Z)-2-(2-amino-4-thiazolyl)-2-[[1-[3-(3,4-dihydroxybenzoyl)carbazoyl]-1-methylethoxy]imino]acetamido]-3-[[[5-(3,4-dihydroxyphenyl)-1,3,4-oxadiazol-2-yl]thio]methyl]-8-oxo-5-thia-1-azabicyclo[4.2.0]oct-2-ene-2-carboxylic acid] | 0.06 (≈ 0.0725 µM) | > 32 | 2 (≈ 2.42 µM) | > 32 | 0.06 (≈ 0.0725 µM) | 0.06 (≈ 0.0725 µM) | 0.06 (≈ 0.0725 µM) | 0.12 (≈ 0.145 µM) | 0.64 (≈ 0.773 µM) | 0.06 (≈ 0.0725 µM) | 0.06 (≈ 0.0725 µM) | 1 (≈ 1.21 µM) | – | – | 16 (≈ 19.3 µM) | 0.06 (≈ 0.0725 µM) | 1 (≈ 1.21 µM) | 2.1 | 0.25 (≈ 0.302 µM) | ED50 ([18]; Escherichia coli, sc, E. coli 25922, albino mice, s.c. 1 and 3 hours after infection, survival after 4 days, read-out: ED50): 0.13 mg/kg
